Source: patent US10906938B2, “Cell epitopes and combination of cell epitopes for use in the immunotherapy of myeloma and other cancers” (Immatics Biotechnologies GmbH, priority 2015, dated 2021)

Legend:
MM.1S cells = assay: HLA class I ligand presentation upon carfilzomib treatment on MM.1S cells (LC-MS/MS); format: cell-based, human; parameters: key to modulation upon carfilzomib-treatment 24 #1 / modulation upon carfilzomib-treatment 24 #2 / modulation upon carfilzomib-treatment 24 #3 / modulation upon carfilzomib-treatment 48 #1 / modulation upon carfilzomib-treatment 48 #2 / modulation upon carfilzomib-treatment 48 #3: −1: significantly down-modulated; 0: not signifcant/not detected; 1: significantly up-modulated; conditions: MM.1S cells; for modulation upon carfilzomib-treatment 24 #1 / modulation upon carfilzomib-treatment 24 #2 / modulation upon carfilzomib-treatment 24 #3: 24 h after carfilzomib treatment (100 nM, 1 h); for modulation upon carfilzomib-treatment 24 #1 / modulation upon carfilzomib-treatment 48 #1: biological replicate #1; for modulation upon carfilzomib-treatment 24 #1 / modulation upon carfilzomib-treatment 24 #2 / modulation upon carfilzomib-treatment 24 #3 / modulation upon carfilzomib-treatment 48 #1 / modulation upon carfilzomib-treatment 48 #2 / modulation upon carfilzomib-treatment 48 #3: vs mock-treated controls; for modulation upon carfilzomib-treatment 24 #2 / modulation upon carfilzomib-treatment 48 #2: biological replicate #2; for modulation upon carfilzomib-treatment 24 #3 / modulation upon carfilzomib-treatment 48 #3: biological replicate #3; for modulation upon carfilzomib-treatment 48 #1 / modulation upon carfilzomib-treatment 48 #2 / modulation upon carfilzomib-treatment 48 #3: 48 h after carfilzomib treatment (100 nM, 1 h)
Procedure: HLA class I and II molecules were isolated using standard immunoaffinity purification as described using the pan-HLA class I specific mAb W6/32, the pan-HLA class II specific mAb T039 and the HLA-DR specific mAB L243 (produced in house).
HLA ligand extracts were analyzed in 5 technical replicates as described previously. In brief, peptide samples were separated by nanoflow HPLC (RSLCnano, ThermoFisher) using a 50 μm×25 cm PepMap RSLC column (Thermo Fisher) and a gradient ranging from 2.4 to 32.0% acetonitrile over the course of 90 min. Eluting peptides were analyzed in an online coupled LTQ Orbitrap XL mass spectrometer (Thermo Fisher) using a top 5 CID (collision induced dissociation) fragmentation method.
Data processing was performed as described previously. In brief, the Mascot search engine (Mascot 2.2.04; Matrix Science, London, UK) was implemented to search the human proteome as comprised in the Swiss-Prot database (20,279 reviewed protein sequences, September 2013) without enzymatic restriction. Potential mutated HLA ligands were searched implementing a database containing the human proteome concatenated with proteins containing single amino acid variants (SAVs) listed in the COSMIC database (http://cancer.sanger.ac.uk/cosmic/). Only recurrent SAVs described in 2 or more samples of hematological origin were included. Oxidized methionine was allowed as a dynamic modification. The false discovery rate was estimated using the Percolator algorithm and set to 5%. Peptide lengths were limited to 8-12 amino acids for HLA class I and 12-25 amino acids for HLA class II. Protein inference was disabled, allowing for multiple protein annotations of peptides. HLA annotation was performed using SYFPEITHI [46] or an extended in-house database. Experimental validation of peptide identifications and HLA annotations was performed by mass spectrometric and functional characterization of synthetic peptides for a subset of peptides.
The inventors quantitatively assessed HLA class I ligand presentation during proteasome inhibitor therapy. Observed was a considerable plasticity of the HLA class I ligandome after treatment with carfilzomib with 17.9±1.1% of MM.1S ligands and 11.2±0.7% of U266 ligands (mean of three biological replicates ±s.d.) showing significant modulation (fold-change ≥4, Po0.01 after Benjamini-Hochberg correction) at t24 h compared with mock-treated controls. Briefly, Cultured MCLs (MM.1S and U266) and primary myeloma samples were incubated with carfilzomib (100 nM, Kyprolis®, available, e.g., from Onyx Pharmaceuticals, Inc.) as an example for a proteasome inhibitor for a 1-h period, followed by three washes in PBS (Gibco) and recultured for additional 24 or 48 h. Controls were incubated with vehicle control (glucose 5%) for 1 h, followed by identical washing and incubation for 24 or 48 h. Experiments were conducted in three biological replicates where indicated.

U266 cells = assay: HLA class I ligand presentation upon carfilzomib treatment on U266 cells (LC-MS/MS); format: cell-based, human; parameters: key to modulation upon carfilzomib-treatment 24 #1 / modulation upon carfilzomib-treatment 24 #2 / modulation upon carfilzomib-treatment 24 #3 / modulation upon carfilzomib-treatment 48 #1 / modulation upon carfilzomib-treatment 48 #2 / modulation upon carfilzomib-treatment 48 #3: −1: significantly down-modulated; 0: not signifcant/not detected; 1: significantly up-modulated; conditions: U266 cells, vs mock-treated controls
In short: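 MM.1S and U266 myeloma cells were pulsed with 100 nM carfilzomib for 1 h, washed and recultured 24 or 48 h; controls got 5% glucose vehicle. HLA class I ligands were immunopurified with W6/32 and analysed by nanoLC-MS/MS (CID, 5 technical replicates, 5% FDR, 8-12-mers). Modulation versus mock was scored as fold-change ≥4 with Benjamini-Hochberg-corrected significance.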

Sequence	modulation upon carfilzomib-treatment 24 #1 (MM.1S cells)	modulation upon carfilzomib-treatment 24 #2 (MM.1S cells)	modulation upon carfilzomib-treatment 24 #3 (MM.1S cells)	modulation upon carfilzomib-treatment 48 #1 (MM.1S cells)	modulation upon carfilzomib-treatment 48 #2 (MM.1S cells)	modulation upon carfilzomib-treatment 48 #3 (MM.1S cells)	modulation upon carfilzomib-treatment 24 #1 (U266 cells; 24 h after carfilzomib treatment (100 nM, 1 h), biological replicate #1)	modulation upon carfilzomib-treatment 24 #2 (U266 cells; 24 h after carfilzomib treatment (100 nM, 1 h), biological replicate #2)	modulation upon carfilzomib-treatment 24 #3 (U266 cells; 24 h after carfilzomib treatment (100 nM, 1 h), biological replicate #3)	modulation upon carfilzomib-treatment 48 #1 (U266 cells; 48 h after carfilzomib treatment (100 nM, 1 h), biological replicate #1)	modulation upon carfilzomib-treatment 48 #2 (U266 cells; 48 h after carfilzomib treatment (100 nM, 1 h), biological replicate #2)	modulation upon carfilzomib-treatment 48 #3 (U266 cells; 48 h after carfilzomib treatment (100 nM, 1 h), biological replicate #3)	modulation of peptide presentation upon carfilzomib treatment (MM.1S cells; 24 h after carfilzomib treatment)
RPQLKGVVL	0	0	0	0	0	0	0	0	0	0	0	0	–
SYLNSVQRL	0	0	0	0	0	0	–	–	–	–	–	–	–
TASPLVKSV	0	0	0	0	1	0	–	–	–	–	–	–	–
TFLPFIHTI	0	0	0	0	0	0	–	–	–	–	–	–	–
VPLPPKGRVL	0	0	0	0	0	0	–	–	–	–	–	–	–
VPLTRVSGGAA	1	1	1	1	1	1	–	–	–	–	–	–	–
YVFPGVTRL	0	0	0	−1	0	0	–	–	–	–	–	–	–
YYLNEIQSF	0	0	0	0	0	0	–	–	–	–	–	–	–
YYLNEIQSF [SEQ ID NO: 228]	–	–	–	–	–	–	–	–	–	–	–	–	no significant modulation
